Measurements from patent US6537996B2, “Modulators of p38 MAP kinase” (Iconix Pharmaceuticals, Inc., priority 2000, dated 2003).

Tests used:
[1] = biological target: T1, Recombinant p38 (Homo sapiens, UniProt Q16539); experiment: p38 assay (32P incorporation into GST-ATF-2); assay type: biochemical; settings: recombinant p38, GST-ATF-2 substrate, 30 μM ATP; IC50 estimated from graph
T1 construct: purchased Biomol SE-150
Description: (A) Protocol: Recombinant p38 was pre-incubated for 30 minutes at room temperature in ADB (Assay Dilution Buffer: 20 mM MOPS, pH 7.2, 20 mM MgCl2, 5 mM EGTA, 1 mM DTT, 25 mM β-glycerolphosphate, 2 mM pNPP, 0.1 mM sodium orthovanadate) with recombinant GST-ATF-2 and compounds at various concentrations. The DMSO concentration was held constant at 0.1% (v/v) independent of the compound concentration. Kinase reactions were started with a mixture of ^32P-γ-ATP and ATP in ADB and were incubated for 30 minutes at 37° C. Final concentrations in kinase reactions was 0.625 ng/μl recombinant p38 (Biomol, catalog number SE-150), 62.5 ng/μl recombinant GST-ATF-2 (Upstate Biotechnology, catalog #12-367) and 30 μM ATP (Amersham, catalog #AA0068, used within two weeks of the reference date). Reactions were terminated by the addition of stopmix (final concentrations: 62.5 mM Tris pH 6.8, 10% (v/v) glycerol, 5% (v/v) B-mercaptoethanol, 20 mg/ml SDS, 1 mg/ml bromophenol blue). At this point samples were either processed directly or stored at 4° C. For analysis, samples were heated to 95° C. for 5 min and proteins were separated by SDS-PAGE using 8-16% precast gels (Novex). […] Screens were scanned using a PhosphoImager SI (Molecular Dynamics) and the amount of radioactive ^32P incorporated into GST-ATF-2 was quantified using ImageQuant (Molecular Dynamics) software. […]

[2] = test system: yeast; experiment: growth rescue ARC experiments performed in yeast; assay type: cell-based; settings: Saccharomyces cerevisiae, read-out: in vivo IC50

T1 sequence (Q16539 whole entry): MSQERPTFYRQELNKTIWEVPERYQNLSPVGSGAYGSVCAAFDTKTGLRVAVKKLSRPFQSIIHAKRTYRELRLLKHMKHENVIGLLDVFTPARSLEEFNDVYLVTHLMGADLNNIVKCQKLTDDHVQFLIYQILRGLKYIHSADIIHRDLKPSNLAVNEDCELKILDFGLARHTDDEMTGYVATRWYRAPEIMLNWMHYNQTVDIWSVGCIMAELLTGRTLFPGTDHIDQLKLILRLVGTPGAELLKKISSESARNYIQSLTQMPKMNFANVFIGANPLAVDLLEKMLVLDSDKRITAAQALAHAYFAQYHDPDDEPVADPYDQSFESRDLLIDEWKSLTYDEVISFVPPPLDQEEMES

`CC(C)/N=C(/Nc1cccc(C(F)(F)F)c1)c1ccncc1` [X, N-(3-trifluoromethylphenyl)-N′-isopropyl-4-amidinopyridine] gave an IC50 [1] of 0.75 µM and an IC50 [2] of 13.2 µM.
